Where two headings read alike, the source gives them in different places.
Assays:
Type in all cases: cell-based
Giberella fujikuroi = experiment: Plate medium fungicidal assay, rice bakanae disease G.f (Experimental Example 5)
Protocol: (§1) In this Experimental Example, the fungicidal effects of the inventive compounds on various phytopathogenic fungi for plants and hazardous microorganism for industrial materials were examined by the methods described below. Each inventive compound was dissolved in 2 ml of dimethyl sulfoxide. 0.6 ml of this solution was added to 60 nil of a PDA medium (potato dextrose agar medium) at about 60 degrees C., which was mixed thoroughly in a 100-ml conical flask, and poured into a dish, where it was solidified, thereby obtaining a plate medium containing the inventive compound at 50 mg/L and 5 mg/L. On the other hand, a subject microorganism previously cultured on a plate medium was cut out using a cork borer whose diameter was 4 mm, and inoculated to the test compound-containing plate medium described above. […] The growth degree of the microorganism on the test compound-containing plate medium thus observed was compared with the growth degree of the microorganism in the untreated group, and % mycelial growth inhibition was calculated by the following equation. R=100(dc−dt)/dc wherein R=% mycelial extension inhibition, dc=flora diameter in untreated plate, dt=flora diameter in treated plate. The results obtained as described above were evaluated as one of the 5 grades according to the following criteria. […] Rice bakanae disease (Giberella fujikuroi) G.f

Pyricularia oryzae = experiment: microbe, parasite or virus in culture; conditions: for Growth inhibition grade, P.o: plate medium; for inhibition at 5 µg/mL / inhibition at 50 µg/mL: Pyricularia oryzae
Rhynchosporium secalis = experiment: Plate medium fungicidal assay, barley leaf blotch R.sec (Experimental Example 5); conditions: for inhibition at 5 µg/mL / inhibition at 50 µg/mL: Rhynchosporium secalis
Protocol: as §1, with “Barley leaf blotch (Rhynchosporium secalis) R.sec” for “Rice bakanae disease (Giberella fujikuroi) G.f”

Sclerotinia sclerotiorum = experiment: Plate medium fungicidal assay, Sclerotinia rot S.s (Experimental Example 5); conditions: for inhibition at 5 µg/mL / inhibition at 50 µg/mL: Sclerotinia sclerotiorum
Protocol: as §1, with “Sclerotinia rot (Sclerotinia sclerotiorum) S.s” for “Rice bakanae disease (Giberella fujikuroi) G.f”

Phaeosphaeria nodorum = experiment: Plate medium fungicidal assay, wheat Septoria nodorum blotch P.n (Experimental Example 5); conditions: for inhibition at 5 µg/mL / inhibition at 50 µg/mL: Parastagonospora nodorum
Protocol: as §1, with “Wheat Septoria nodorum blotch (Phaeosphaeria nodorum) P.n” for “Rice bakanae disease (Giberella fujikuroi) G.f”

[1] = test system: Pseudocercoporella herpotrichoides; experiment: Plate medium fungicidal assay, wheat eye spot P.h (Experimental Example 5)
Protocol: as §1, with “Wheat eye spot (Pseudocercoporella herpotrichoides) P.h” for “Rice bakanae disease (Giberella fujikuroi) G.f”

[2] = plate medium, 5 mg/L, read-out: growth inhibition grade G.f
[3] = plate medium, 50 mg/L, read-out: growth inhibition grade G.f
[4] = read-out: growth inhibition grade P.o
[5] = plate medium, 5 mg/L, read-out: growth inhibition grade R.sec
[6] = plate medium, 50 mg/L, read-out: growth inhibition grade R.sec
[7] = plate medium, 5 mg/L, read-out: growth inhibition grade S.s
[8] = plate medium, 50 mg/L, read-out: growth inhibition grade S.s
[9] = plate medium, 5 mg/L, read-out: growth inhibition grade P.n
[10] = plate medium, 50 mg/L, read-out: growth inhibition grade P.n
[11] = plate medium, 5 mg/L, read-out: growth inhibition grade P.h
[12] = plate medium, 50 mg/L, read-out: growth inhibition grade P.h
[13] = read-out: Growth inhibition grade, P.o

| SMILES | inhibition at 5 µg/mL (Giberella fujikuroi; [2]) [%] | inhibition at 50 µg/mL (Giberella fujikuroi; [3]) [%] | inhibition at 5 µg/mL (Pyricularia oryzae; [4]) [%] | inhibition at 50 µg/mL (Pyricularia oryzae; [4]) [%] | inhibition at 5 µg/mL (Rhynchosporium secalis; [5]) [%] | inhibition at 50 µg/mL (Rhynchosporium secalis; [6]) [%] | inhibition at 5 µg/mL (Sclerotinia sclerotiorum; [7]) [%] | inhibition at 50 µg/mL (Sclerotinia sclerotiorum; [8]) [%] | inhibition at 5 µg/mL (Phaeosphaeria nodorum; [9]) [%] | inhibition at 50 µg/mL (Phaeosphaeria nodorum; [10]) [%] | inhibition at 5 µg/mL [1, 11] [%] | inhibition at 50 µg/mL [1, 12] [%] | also measured |
| --- | --- | --- | --- | --- | --- | --- | --- | --- | --- | --- | --- | --- | --- |
| C[C@@]1(CCl)CC[C@@H](Cc2cccc(Cl)c2)[C@]1(O)Cn1cncn1 (relative stereo) [Compound I-174] | – | – | – | – | – | – | – | – | – | – | – | – | Growth inhibition grade, G.f (Giberella fujikuroi; plate medium, 5 mg/L): 5 (% Mycerial growth inhibition of 80% or higher); Growth inhibition grade, G.f (Giberella fujikuroi; plate medium, 50 mg/L): 5 (% Mycerial growth inhibition of 80% or higher); Growth inhibition grade, P.o (Pyricularia oryzae; 5 mg/L): 5 (% Mycerial growth inhibition of 80% or higher); Growth inhibition grade, P.o (Pyricularia oryzae; 50 mg/L): 5 (% Mycerial growth inhibition of 80% or higher); Growth inhibition grade, R.sec (Rhynchosporium secalis; plate medium, 5 mg/L): 5 (% Mycerial growth inhibition of 80% or higher); Growth inhibition grade, R.sec (Rhynchosporium secalis; plate medium, 50 mg/L): 5 (% Mycerial growth inhibition of 80% or higher); Growth inhibition grade, S.s (Sclerotinia sclerotiorum; plate medium, 5 mg/L): 5 (% Mycerial growth inhibition of 80% or higher); Growth inhibition grade, S.s (Sclerotinia sclerotiorum; plate medium, 50 mg/L): 5 (% Mycerial growth inhibition of 80% or higher); Growth inhibition grade, P.n (Phaeosphaeria nodorum; plate medium, 5 mg/L): 5 (% Mycerial growth inhibition of 80% or higher); Growth inhibition grade, P.n (Phaeosphaeria nodorum; plate medium, 50 mg/L): 5 (% Mycerial growth inhibition of 80% or higher); Growth inhibition grade, P.h ([1]; plate medium, 5 mg/L): 5 (% Mycerial growth inhibition of 80% or higher); Growth inhibition grade, P.h ([1]; plate medium, 50 mg/L): 5 (% Mycerial growth inhibition of 80% or higher) |
| C[C@]1(CCl)CC[C@H](Cc2ccc(Cl)cc2)[C@]1(O)Cn1cncn1 (racemic) [Compound I-301, (1RS,2SR,5RS)-5-(4-chlorobenzyl)-2-chloromethyl-2-methyl-1-[1,2,4]triazol-1-ylmethylcyclopentanol] | > 80 | > 80 | > 80 | > 80 | > 80 | > 80 | > 80 | > 80 | > 80 | > 80 | > 80 | > 80 | – |
| C[C@@]1(CCCl)CC[C@@H](Cc2ccc(Cl)cc2)[C@]1(O)Cn1cncn1 (racemic) [Compound I-104, (1RS,2SR,5SR)-5-(4-chlorobenzyl)-2-(2-chloroethyl)-2-methyl-1-(1H-1,2,4-triazol-1-ylmethyl)cyclopentanol] | > 80 | > 80 | > 80 | > 80 | > 80 | > 80 | > 80 | > 80 | > 80 | > 80 | > 80 | > 80 | – |
| C[C@]1(CCl)CC[C@@H](Cc2ccc(Cl)cc2)[C@]1(O)Cn1cncn1 (racemic) [Compound I-1, (1RS,2SR,5SR)-5-(4-chlorobenzyl)-2-chloromethyl-2-methyl-1-(1H-1,2,4-triazol-1-ylmethyl)cyclopentanol] | > 80 | > 80 | > 80 | > 80 | > 80 | > 80 | > 80 | > 80 | > 80 | > 80 | > 80 | > 80 | inhibition at 5 µg/mL (Giberella fujikuroi; plate medium containing compound at 5 mg/L, read-out: Growth inhibition grade, G.f): > 80%; inhibition at 50 µg/mL (Giberella fujikuroi; plate medium containing compound at 50 mg/L, read-out: Growth inhibition grade, G.f): > 80%; inhibition at 5 µg/mL (Pyricularia oryzae; [13]): > 80%; inhibition at 50 µg/mL (Pyricularia oryzae; [13]): > 80%; inhibition at 5 µg/mL (Rhynchosporium secalis; plate medium containing compound at 5 mg/L, read-out: Growth inhibition grade, R.sec): > 80%; inhibition at 50 µg/mL (Rhynchosporium secalis; plate medium containing compound at 50 mg/L, read-out: Growth inhibition grade, R.sec): > 80%; inhibition at 5 µg/mL (Sclerotinia sclerotiorum; plate medium containing compound at 5 mg/L, read-out: Growth inhibition grade, S.s): > 80%; inhibition at 50 µg/mL (Sclerotinia sclerotiorum; plate medium containing compound at 50 mg/L, read-out: Growth inhibition grade, S.s): > 80%; inhibition at 5 µg/mL (Phaeosphaeria nodorum; plate medium containing compound at 5 mg/L, read-out: Growth inhibition grade, P.n): > 80%; inhibition at 50 µg/mL (Phaeosphaeria nodorum; plate medium containing compound at 50 mg/L, read-out: Growth inhibition grade, P.n): > 80%; inhibition at 5 µg/mL ([1]; plate medium containing compound at 5 mg/L, read-out: Growth inhibition grade, P.h): > 80%; inhibition at 50 µg/mL ([1]; plate medium containing compound at 50 mg/L, read-out: Growth inhibition grade, P.h): > 80% |
